Test results published in US20080032978A1, “SOLUBLE EPOXIDE HYDROLASE INHIBITORS” (Arete Therapeutics, Inc., priority 2006, published 2008).

System: soluble epoxide hydrolase (sEH)
Assay: Fluorescent assay for mouse and human soluble epoxide hydrolase (CMNPC substrate)
Format: biochemical
Settings: Conc of I 50 nM
Excerpt: Fluorescent Assay for Mouse and Human Soluble Epoxide Hydrolase Recombinant mouse sEH (MsEH) and human sEH (HsEH) were produced in a baculovirus expression system as previously reported. Grant et al., J. Biol. Chem., 268:17628-17633 (1993); Beetham et al., Arch. Biochem. Biophys., 305:197-201 (1993). The expressed proteins were purified from cell lysate by affinity chromatography. Wixtrom et al., Anal. […] Protein concentration was quantified using the Pierce BCA assay using bovine serum albumin as the calibrating standard. […] Solutions: Bis/Tris HCl 25 mM 7.0 containing 0.1 mg/mL of BSA (buffer […] at 0.25 mM in DMSO. Mother solution of enzyme in buffer A (Mouse sEH at 6 μg/mL and Human sEH at 5 μg/mL). Inhibitor dissolved in DMSO at the appropriate concentration. Protocol: In a black 96 well plate, fill all the wells with 150 μL of buffer A. Add 2 μL of DMSO in well A2 and A3, and then add 2 μL of inhibitor solution in A1 and A4 through A12. Add 150 μL of buffer A in a row A, then mix several time and transfer 150 μL to row B. Repeat this operation up to row H. The 150 μL removed from row H go to the trash. Add 20 μL of buffer A in column 1 and 2, then add 20 μL of enzyme solution to column 3 to 12. Incubate the plate for 5 minutes in the plate reader at 30° C. During incubation prepare the working solution of substrate by mixing 3.68 mL of buffer A (4×0.920 mL) with 266 μL (2×133 μL) of substrate solution). At t=0, add 30 μL of working substrate solution with multi-channel pipette labeled “Briggs 303” and start the reading ([S]final: 5 μM). Read with ex: 330 nm (20 nm) and em: 465 nm (20 nm) every 30 second for 10 minutes. The velocities are used to analyze and calculate the IC50s.

Row | % I | Compound
1 | 84% | CN1CCN(C(=O)c2ccc(NC(=O)Nc3ccc(OC(F)(F)F)cc3)cc2)CC1 [Compound 27, 1-[4-(4-Methyl-piperazine-1-carbonyl)-phenyl]-3-(4-trifluoromethoxy-phenyl)-urea]
2 | 97% | O=C(Nc1ccc(C(F)(F)F)cc1)Nc1ccc(C(=O)N2CCOCC2)c(F)c1 [Compound 22, 1-[3-Fluoro-4-(morpholine-4-carbonyl)-phenyl]-3-(4-trifluoromethyl-phenyl)-urea]
3 | 87% | O=C(Nc1ccc(C(F)(F)F)cc1)Nc1ccc(F)c(C(=O)N2CCOCC2)c1 [Compound 16, 1-[4-Fluoro-3-(morpholine-4-carbonyl)-phenyl]-3-(4-trifluoromethyl-phenyl)-urea]
4 | 93% | CN(CCN1CCOCC1)C(=O)c1ccc(NC(=O)Nc2ccc(C(F)(F)F)cc2)cc1 [Compound 41, N-Methyl-N-(2-morpholin-4-yl-ethyl)-4-[3-(4-trifluoromethyl-phenyl)-ureido]-benzamide]
5 | 74% | O=C(Nc1ccc(Cl)cc1)Nc1ccc(C(=O)N2CCOCC2)c(F)c1 [Compound 14, 1-(4-Chloro-phenyl)-3-[3-fluoro-4-(morpholine-4-carbonyl)-phenyl]-urea]
6 | 92% | CC(C)N1CCN(C(=O)c2ccc(NC(=O)Nc3ccc(OC(F)(F)F)cc3)cc2)CC1 [Compound 32, 1-[4-(4-Isopropyl-piperazine-1-carbonyl)-phenyl]-3-(4-trifluoromethoxy-phenyl)-urea]
7 | 88% | O=C(Nc1ccc(OC(F)(F)F)cc1)Nc1ccc(C(=O)N2CCOCC2)cc1 [Compound 26, 1-[4-(Morpholine-4-carbonyl)-phenyl]-3-(4-trifluoromethoxy-phenyl)-urea]

Same assay, conditions: Conc of I 500 nM

Row | % I | Compound
8 | 99% | O=C(Nc1ccc(C(F)(F)F)cc1)Nc1cccc(C(=O)N2CCOCC2)c1 [Compound 15, 1-[3-(Morpholine-4-carbonyl)-phenyl]-3-(4-trifluoromethyl-phenyl)-urea]
9 | 64% | CN1CCN(C(=O)c2ccc(NC(=O)Nc3ccc(F)cc3)cc2)CC1 [Compound 24, 1-(4-Fluoro-phenyl)-3-[4-(4-methyl-piperazine-1-carbonyl)-phenyl]-urea]
10 | 92% | CC(C)N1CCN(C(=O)c2cccc(NC(=O)Nc3ccc(C(F)(F)F)cc3)c2)CC1 [Compound 35, 1-[3-(4-Isopropyl-piperazine-1-carbonyl)-phenyl]-3-(4-trifluoromethyl-phenyl)-urea]
11 | 94% | CN1CCN(C(=O)c2cccc(NC(=O)Nc3ccc(C(F)(F)F)cc3)c2)CC1 [Compound 19, 1-[3-(4-Methyl-piperazine-1-carbonyl)-phenyl]-3-(4-trifluoromethyl-phenyl)-urea]
12 | 69% | O=C(Nc1ccc(F)cc1)Nc1ccc(C(=O)N2CCOCC2)cc1 [Compound 23, 1-(4-Fluoro-phenyl)-3-[4-(morpholine-4-carbonyl)-phenyl]-urea]

Same assay, conditions: Conc of I 5000 nM

Row | % I | Compound
13 | 96% | O=C(Nc1ccc(Cl)cc1)Nc1ccc(C(=O)N2CCC(N3CCOCC3)CC2)cc1 [Compound 8, 1-(4-Chloro-phenyl)-3-[4-(4-morpholin-4-yl-piperidine-1-carbonyl)-phenyl]-urea]
14 | 90% | CN(CC(=O)O)C(=O)c1cccc(NC(=O)NC23CC4CC(CC(C4)C2)C3)c1 [Compound 7, {[3-(3-Adamantan-1-yl-ureido)-benzoyl]-methyl-amino}-acetic acid]
15 | 93% | CN(CC(=O)O)C(=O)c1ccc(NC(=O)NC23CC4CC(CC(C4)C2)C3)cc1 [Compound 6, {[4-(3-Adamantan-1-yl-ureido)-benzoyl]-methyl-amino}-acetic acid]
16 | 97% | O=C(Nc1ccccc1)Nc1ccc(C(=O)N2CCOCC2)cc1 [Compound 1, 1-[4-(Morpholine-4-carbonyl)-phenyl]-3-phenyl-urea]
17 | 99% | O=C(Nc1cccc(C(=O)N2CCC(C(=O)O)CC2)c1)NC12CC3CC(CC(C3)C1)C2 [Compound 13, 1-[3-(3-Adamantan-1-yl-ureido)-benzoyl]-piperidine-4-carboxylic acid]
